Values of other authors, collected in patent US20050043369A1, “Bactericidal antimicrobial methods and compositions for use in treating gram positive infections” (Protez Pharmaceuticals Inc., priority 2000, published 2005).

Tested on: S. aureus (SA1199)
Details: vancomycin; Jeffrey et al., 1999; cited from earlier work

## CN[C@H](CC(C)C)C(=O)N[C@H]1C(=O)N[C@@H](CC(N)=O)C(=O)N[C@H]2C(=O)N[C@H]3C(=O)N[C@H](C(=O)N[C@H](C(=O)O)c4cc(O)cc(O)c4-c4cc3ccc4O)[C@H](O)c3ccc(c(Cl)c3)Oc3cc2cc(c3O[C@@H]2O[C@H](CO)[C@@H](O)[C@H](O)[C@H]2O[C@H]2C[C@](C)(N)[C@H](O)[C@H](C)O2)Oc2ccc(cc2Cl)[C@H]1O [vancomycin]
  time to decrease the viability of S. aureus by 1000-fold: 4 to 8 h
